Measurements as given in patent US20250129033A1, “METAP2 INHIBITORS AND USES THEREOF” (Yissum Research Development Company of the Hebrew …, priority 2022, published 2025).
“Also recorded” adds a separate entry of the source.

Columns and labels:
[1] = tested on: A375 xenograft; assay: A375 xenograft in mice; assay type: in vivo, Foxn1 nu mice; conditions: for inhibition in tumor growth: 15 mg/kg and 30 mg/kg I.P. q.o.d
Protocol: (§1) Animal studies were approved by the Institutional Animal Care and Use Committee of the Faculty of Medicine of the Hebrew University and followed the guidelines for use of laboratory animals. 6-8-week-old male Foxn1 nu mice were S.C. injected with 5×10^6 A375 and MDA-MB-231 cells/mouse. Mice were I.P treated with 30 mg/kg and 15 mg/kg AD-3281 every other day and with 15 mg/kg, 7.5 mg/kg AD-3281 every other day in mice injected with A375 and MDA-MB-231 respectively. Tumor growth was measured with a digital caliper. At the end of the experiments after 18 or 15 days, mice were sacrificed, and tumors were surgically removed, weighed, volume was measured and histology stating was performed. AD-3281 was dissolved in 10:10:80 […]:ethanol:saline.
(§2) Animal studies were approved by the Institutional Animal Care and Use Committee of the Faculty of Medicine of the Hebrew University and followed the guidelines for use of laboratory animals. 6-8-week-old male Foxn1 nu mice were S.C. injected with 5×10^6 A375 or MDA-MB-231 cells/mouse. Mice were I.P treated with 30 mg/kg and 15 mg/kg AD-3281 q.o.d and with 15 mg/kg, 7.5 mg/kg AD-3281 (dissolved in 10:10:80 Cremophor EL: Ethanol: Saline) q.o.d in mice injected with A375 and MDA-MB-231 respectively. Tumor growth was measured with a digital caliper. At the end of the experiments after 18 or 15 days, mice were sacrificed, and tumors were surgically removed, weighed, volume was measured and histology stating was performed. Tumor tissues were resected at the end point and analyzed by immunohistology using standard protocol for paraffin fixed sections using anti-Ki-67 (Abcam, catalog number ab15580), anti-CD31 (Abcam, catalog number ab28364), anti-MetAp-2 (Ab134124, Abcam, Cambridge, UK) (Figure S.

[2] = biological target: T1, recombinant human methionine aminopeptidase 2 (Homo sapiens, UniProt P50579); assay: Enzymatic activity assay on recombinant human MetAp2 (L-Met-AMC); assay type: biochemical; conditions: 2.5 μM, over the course of 1 h, vs untreated control
T1 construct: purchased bio-techne 3795-ZN
T1 sequence (P50579 whole entry): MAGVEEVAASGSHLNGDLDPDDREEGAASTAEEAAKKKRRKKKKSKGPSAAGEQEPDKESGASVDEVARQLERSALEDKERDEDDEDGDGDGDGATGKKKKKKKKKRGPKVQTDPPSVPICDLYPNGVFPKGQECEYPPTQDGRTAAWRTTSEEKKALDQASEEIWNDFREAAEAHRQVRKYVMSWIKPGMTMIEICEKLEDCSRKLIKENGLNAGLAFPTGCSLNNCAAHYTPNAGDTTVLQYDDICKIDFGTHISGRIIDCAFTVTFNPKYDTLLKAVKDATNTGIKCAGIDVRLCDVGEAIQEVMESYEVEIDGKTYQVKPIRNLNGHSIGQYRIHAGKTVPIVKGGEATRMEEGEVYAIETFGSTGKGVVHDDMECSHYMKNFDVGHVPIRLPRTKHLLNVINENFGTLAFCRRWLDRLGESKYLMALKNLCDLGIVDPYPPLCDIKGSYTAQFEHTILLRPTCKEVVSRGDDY
Protocol: The enzymatic assay was performed using 5 μg protein per sample as described previously. To test the inhibitory effect of AD-3281, at the same conditions, AD-3281 was also added to 0.33 μg recombinant human methionine aminopeptidase 2 obtained from bio-techne (USA, 3795-ZN), samples were incubated with the inhibitor for 15 min at RT before adding the substrate. The reaction was started by adding 250 μM L-Met-AMC as a substrate. An increase of fluorescence, due to substrate degradation during the enzymatic assay, was measured every 20 seconds for 1 h and 30 min at 37° C. using a plate reader (Wallac 1420 VICTOR plate reader, Perkin-Elmer Life Sciences, USA). The assay was carried out on a 96-well plate on ice and it was performed in an assay buffer (pH 7.5) containing 50 mM HEPES, 0.1 mM CoCl2, 100 mM NaCl and 1 mg/mL PEG 6000, in a final volume of 100 μL.
(§3) A375 and MDA-MB-231 were sub-cultivated using trypsin, then centrifuged and counted. […] The protein content of the supernatant was determined according to the Bradford protein assay using BSA as the standard. […] An increase of fluorescence, due to substrate degradation during the enzymatic assay, was measured every 20 seconds for 1 h and 30 min at 37° C. using a plate reader (Wallac 1420 VICTOR plate reader, Perkin-Elmer Life Sciences, USA). […]

[3] = tested on: MDA-MB-231 xenograft; assay: MDA-MB-231 xenograft in mice; assay type: in vivo, Foxn1 nu mice
Protocol: as §1, §2

[4] = biological target: T2, MetAp2 in A375 cancer cells (Homo sapiens, UniProt P50579); assay: MetAp2 enzymatic activity in A375 cell homogenate; assay type: biochemical; conditions: 2.5 μM
T2 construct: host or cells: A375 cell homogenate (RIPA supernatant, 5 µg protein)
T2 sequence (P50579 whole entry): as above
Protocol: (§4) A375 and MDA-MB-231 were sub cultivated using trypsin, then centrifuge and counted. To obtain a homogenate containing an equivalent cell number, cells were resuspended in an appropriate volume of cold RIPA containing a protease inhibitor cocktail. Insoluble cellular components were removed by centrifugation at 15,000 RPM for 10 min at 4° C. The protein content of the supernatant was determined according to the Bradford protein assay using BSA as the standard.
(§5) The enzymatic assay was performed using 5 μg protein per sample as described previously. […] An increase of fluorescence, due to substrate degradation during the enzymatic assay, was measured every 20 seconds for 1 h and 30 min at 37° C. using a plate reader (Wallac 1420 VICTOR plate reader, Perkin-Elmer Life Sciences, USA). […]
as §3

[5] = tested on: HUVECs; assay: Endothelial tube formation assay; assay type: cell-based, human; conditions: 12 h
Protocol: To evaluate the angiogenic effect of AD-3281, an endothelial tube formation assay was performed. HUVECs were kept in serum-free Dulbecco's modified Eagle's medium media, collected, seeded in 0.1% gelatin coated 96-well plate and monitored for 12 h using a microscope. Images were taken from 6 separated wells and analyzed using Incucyte® Live-Cell Analysis Systems.

[6] = biological target: T3, MetAp2 in MDA-MB-231 cancer cells (Homo sapiens, UniProt P50579); assay: MetAp2 enzymatic activity in MDA-MB-231 cell homogenate; assay type: biochemical; conditions: 2.5 μM
T3 construct: host or cells: MDA-MB-231 cell homogenate (RIPA supernatant, 5 µg protein)
T3 sequence (P50579 whole entry): as above
Protocol: as §4, §5, §3

## COC1C(OC(=O)CC23CC4CC(CC(C4)C2)C3)CCC2(CO2)C1C1(C)OC1CC=C(C)C (centres unmarked) [AD-3281, Fumagillol-1-adamantylacetate]
[1]; after 8 days, vs control
  inhibition in tumor growth: ~70%
[1]; day 18
  inhibition in tumor growth: 99%
[1]; immunofluorescent staining of extracted tumors
  cellular proliferation in tumors (Ki-67): less cellular proliferation than untreated tumors
[1]; treated groups, day 18 (untreated 1 g)
  mean weight of extracted tumors: ~0.1 g
[2]
  inhibition of rhMetAp2 enzymatic activity: 95%
[3]; 7.5 mg/kg q.o.d (untreated 1 g)
  mean weight of extracted tumors: 0.05 g
[3]; 7.5 mg/kg q.o.d, after 15 days
  tumor volume inhibition: 97%
[3]; 15 mg/kg q.o.d (untreated 1 g)
  mean weight of extracted tumors: 0.001 g
[3]; 15 mg/kg q.o.d, after 15 days, n=4
  tumors that seemed completely eradicated: 3 tumors
[3]; all treated mice
  systemic adverse effects: no signs of systemic adverse effects
  weight loss (>10%): not weight loss was detected
[4]; 10 minutes of exposure
  inhibition of MetAp2 activity in A375 after 10 minutes: Significant inhibition
[4]; over the course of 1 h
  reduction of MetAp2 enzymatic activity in A375: 64%
[5]; 50 μM
  HUVEC tube formation: narrower tubes compared with untreated control but without preventing network formation
[5]; 100 μM
  HUVEC tube formation: impaired tubes; also recorded: prevent tube formation
[6]; 10 minutes of exposure
  inhibition of MetAp2 activity in MDA-MB-231 after 10 minutes: Significant inhibition
[6]; over the course of 1 h
  reduction of MetAp2 enzymatic activity in MDA-MB-231: 80%
